Test results as given in US7173004B2, “Macrocyclic isoquinoline peptide inhibitors of hepatitis C virus” (Bristol-Myers Squibb Company, priority 2003, dated 2007).

Assays:
Assay type in all cases: biochemical
[1] = biological target: T1, human neutrophil elastase (HNE) (Homo sapiens, UniProt P08246); test: Specificity assay, human neutrophil elastase; conditions: read-out: HNE activity in the specificity assays (IC50)
T1 construct: purchased Sigma
T1 sequence (P08246 30-267): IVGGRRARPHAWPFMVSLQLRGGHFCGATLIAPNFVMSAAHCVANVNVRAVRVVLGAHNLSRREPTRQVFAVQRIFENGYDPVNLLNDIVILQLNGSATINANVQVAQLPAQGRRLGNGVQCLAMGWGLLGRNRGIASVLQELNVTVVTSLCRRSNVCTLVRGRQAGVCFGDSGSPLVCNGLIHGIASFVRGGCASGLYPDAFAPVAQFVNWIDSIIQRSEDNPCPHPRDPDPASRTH
Method: (§1) The specificities of compounds of the present invention were determined against a variety of serine proteases: human neutrophil elastase (HNE), porcine pancreatic elastase (PPE) and human pancreatic chymotrypsin and one cysteine protease: human liver cathepsin B. In all cases a 96-well plate format protocol using calorimetric p-nitroaniline (pNA) substrate specific for each enzyme was used as described previously (PCT Patent Application No. WO 00/09543) with some modifications to the serine protease assays. All enzymes were purchased from Sigma while the substrates were from Bachem.
(§2) Each assay included a 2 hr enzyme-inhibitor pre-incubation at room temperature followed by addition of substrate and hydrolysis to ˜30% conversion as measured on a Spectramax Pro microplate reader. Compound concentrations varied from 100 to 0.4 micromolar (“μM”) depending on their potency. […]
(§3) The percentage of inhibition was calculated using the formula: [1−((UVinh−UVblank)/(UVctl−UVblank))]×100 […]

[2] = biological target: T2, porcine pancreatic elastase (PPE) (Sus scrofa, UniProt P00772); test: Specificity assay, porcine pancreatic elastase; conditions: read-out: PPE activity in the specificity assays (IC50)
T2 construct: purchased Sigma
T2 sequence (P00772 27-266): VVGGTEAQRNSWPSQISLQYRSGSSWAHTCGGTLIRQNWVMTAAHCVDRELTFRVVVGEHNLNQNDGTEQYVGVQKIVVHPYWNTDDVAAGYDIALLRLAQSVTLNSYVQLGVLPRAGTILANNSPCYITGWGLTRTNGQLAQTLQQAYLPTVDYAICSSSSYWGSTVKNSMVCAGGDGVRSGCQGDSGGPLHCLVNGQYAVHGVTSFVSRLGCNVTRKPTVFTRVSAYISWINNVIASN
Method: as §1, §2, §3

[3] = biological target: T3, human liver cathepsin B (Homo sapiens, UniProt P07858); test: Specificity assay, cathepsin B; conditions: read-out: Cathepsin B activity in the specificity assays (IC50)
T3 construct: purchased Sigma; host or cells: human liver (by the enzyme's name)
Method: as §1, §2, §3

Measured: IC50

CC(C)(C)OC(=O)N[C@H]1CCCCC/C=C\[C@@H]2C[C@@]2(C(=O)NS(C)(=O)=O)NC(=O)[C@@H]2C[C@@H](Oc3nccc4ccccc34)CN2C1=O [Compound 2, [18-(Isoquinolin-1-yloxy)-4-methanesulfonylaminocarbonyl-2,15-dioxo-3,16-diaza-tricyclo[14.3.0.0^4,6]nonadec-7-en-14-yl]-carbamic acid tert-butyl ester]
> 100 µM: all assays above
